# Source: patent US20230233541A1, “SUBSTITUTED BENZAMIDES AS MODULATORS OF TREX1” (Constellation Pharmaceuticals, Inc., priority 2020, published 2023)
# Legend:
# full length human TREX1 = target: T1, full length human TREX1 (Homo sapiens, UniProt Q9NSU2); test: TREX1 Biochemical Assay (fluorescence assay, degradation of dsDNA substrate); conditions: 150 pM TREX1, 60 nM dsDNA substrate, 25 minutes at room temperature; read-out: hTREX1 EC50
# T1 construct: N-terminally His-Tev tagged full length human TREX1; His-Tev (His tag with TEV protease site) (N); made in house; host or cells: E. coli
# T1 sequence (Q9NSU2 1-314): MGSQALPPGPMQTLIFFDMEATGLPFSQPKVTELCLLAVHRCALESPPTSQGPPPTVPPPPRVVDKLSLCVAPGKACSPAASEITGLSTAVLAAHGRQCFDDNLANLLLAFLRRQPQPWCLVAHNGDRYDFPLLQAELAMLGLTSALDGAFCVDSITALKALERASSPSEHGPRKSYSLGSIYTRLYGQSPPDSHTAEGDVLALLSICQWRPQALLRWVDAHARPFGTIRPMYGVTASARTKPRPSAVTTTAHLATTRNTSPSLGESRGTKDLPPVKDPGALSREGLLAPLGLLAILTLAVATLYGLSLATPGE
# Summary of the method: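 E. coli-expressed His-Tev-tagged full-length TREX1 (150 pM) with 60 nM quenched-fluorophore dsDNA in Tris pH 7.4, 150 mM NaCl, 100 mM MgCl2, 1% DMSO, 25 min room temperature, 10-point dose-response. EDTA stop; fluorescence 615 nm (ex 570 nm); IC50 from four-parameter fit against pre-quenched and no-inhibitor controls.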
# [1] = target: T2, human TREX2 (residues M44-A279) (Homo sapiens, UniProt Q9BQ50); test: TREX2 Biochemical Assay (fluorescence assay, degradation of dsDNA substrate); conditions: 2.5 nM TREX2, 60 nM dsDNA substrate, 25 minutes at room temperature; read-out: hTREX2 EC50
# T2 construct: human TREX2 (residues M44-A279, expressed in E. coli); His-Tev (His tag with TEV protease site) (N); made in house; host or cells: E. coli
# T2 sequence (Q9BQ50 44-279 isoform Q9BQ50-1): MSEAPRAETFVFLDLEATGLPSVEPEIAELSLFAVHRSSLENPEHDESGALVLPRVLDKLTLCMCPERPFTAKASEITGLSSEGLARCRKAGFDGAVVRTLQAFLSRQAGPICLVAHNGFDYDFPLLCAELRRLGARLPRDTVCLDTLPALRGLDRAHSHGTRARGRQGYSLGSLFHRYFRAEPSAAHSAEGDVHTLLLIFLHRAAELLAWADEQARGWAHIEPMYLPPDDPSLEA
# Summary of the method: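 His-Tev-tagged human TREX2 (M44-A279, E. coli-expressed) at 2.5 nM final, with 60 nM TEX615/quencher-labelled dsDNA in pH 7.4 Tris buffer with MgCl2 and 1.0% DMSO, 10-point dose-response, 25 min at room temperature, then EDTA quench. Fluorescence read at 615 nm (ex 570 nm). IC50 from four-parameter fit against pre-quenched and no-inhibitor controls.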
EC50 (full length human TREX1) [µM],EC50 [1] [µM],SMILES
< 0.1,1 to 10,O=C(O)c1ccc(CN(Cc2ccc3ncccc3c2Cl)C(=O)c2cc(F)cc(F)c2)cn1 [Compound 191]
> 10,> 100,N#Cc1ccccc1CN(Cc1ccc(C(=O)O)nc1)C(=O)c1cc(F)cc(F)c1 [Compound 192]
0.1 to 1,10 to 100,Cc1ccccc1CN(Cc1ccc(C(=O)O)nc1)C(=O)c1cc(F)cc(F)c1 [Compound 193]
< 0.1,1 to 10,COc1cccc(CN(Cc2ccc(C(=O)O)nc2)C(=O)c2cc(F)cc(F)c2)c1C [Compound 195]
< 0.1,< 1,CC[C@H](c1cccc(OC)c1C(F)(F)F)N(Cc1ccc(C(=O)O)nc1)C(=O)c1cc(F)cc(F)c1 [Compound 196]
< 0.1,1 to 10,CC[C@@H](c1cccc(OC)c1C(F)(F)F)N(Cc1ccc(C(=O)O)nc1)C(=O)c1cc(F)cc(F)c1 [Compound 197]
0.1 to 1,10 to 100,O=C(O)c1ccc(CN(Cc2cccc(Cl)c2C(F)(F)F)C(=O)c2cc(F)cc(F)c2)cn1 [Compound 198]
1 to 10,10 to 100,O=C(O)c1ccc(CN(Cc2ccccc2OC(F)(F)F)C(=O)c2cc(F)cc(F)c2)cn1 [Compound 199]
0.1 to 1,10 to 100,O=C(O)c1ccc(CN(Cc2sc(Cl)nc2Cl)C(=O)c2cc(F)cc(F)c2)cn1 [Compound 200]
< 0.1,1 to 10,O=C(O)c1ccc(CN(Cc2ccnc(Cl)c2Cl)C(=O)c2cc(F)cc(F)c2)cn1 [Compound 201]
< 0.1,1 to 10,O=C(O)c1ccc(CN(Cc2cncc(Cl)c2Cl)C(=O)c2cc(F)cc(F)c2)cn1 [Compound 202]
< 0.1,1 to 10,O=C(O)c1ccc(CN(Cc2nccc(Cl)c2Cl)C(=O)c2cc(F)cc(F)c2)cn1 [Compound 203]
0.1 to 1,1 to 10,O=C(O)c1ncc(CN(Cc2cccc(Cl)c2Cl)C(=O)c2cc(F)cc(F)c2)cc1Cl [Compound 204]
< 0.1,< 1,Cc1cc(C(=O)O)ncc1CN(Cc1cccc(Cl)c1Cl)C(=O)c1cc(F)cc(F)c1 [Compound 205]
< 0.1,10 to 100,O=C(O)c1cc(CO)c(CN(Cc2cccc(Cl)c2Cl)C(=O)c2cc(F)cc(F)c2)cn1 [Compound 206]
0.1 to 1,10 to 100,O=C(O)c1ncc(CN(Cc2ccccc2Cl)C(=O)c2cc(F)cc(F)c2)cn1 [Compound 207]
< 0.1,< 1,COc1cc(C(=O)O)ncc1CN(Cc1cccc(Cl)c1Cl)C(=O)c1cc(F)cc(F)c1 [Compound 208]
< 0.1,10 to 100,CN(C)c1cc(C(=O)O)ncc1CN(Cc1cccc(Cl)c1Cl)C(=O)c1cc(F)cc(F)c1 [Compound 209]
1 to 10,10 to 100,COc1nc(C(=O)O)ccc1CN(Cc1cccc(Cl)c1Cl)C(=O)c1cc(F)cc(F)c1 [Compound 210]
0.1 to 1,1 to 10,CC(C)(C)OC(=O)Nc1cncc(CN(Cc2cccc(Cl)c2Cl)C(=O)c2cc(F)cc(F)c2)c1 [Compound 212]
> 10,> 100,"COc1cccc(CN(Cc2ccc(NC(C)=O)nc2)C(=O)c2cccc(F)c2)c1Cl [Compound 213, N-((6-acetamidopyridin-3-yl)methyl)-N-(2-chloro-3-methoxybenzyl)-3-fluorobenzamide]"
1 to 10,> 100,CC(=O)Nc1ccc(CN(Cc2cccc(Cl)c2Cl)C(=O)c2cccc(F)c2)cn1 [Compound 214]
1 to 10,10 to 100,COC(=O)C[C@@H](c1ccc(Cl)cc1Cl)N(Cc1cccnc1)C(=O)c1cc(F)cc(F)c1 [Compound 215]
1 to 10,10 to 100,COC(=O)C[C@H](c1ccc(Cl)cc1Cl)N(Cc1cccnc1)C(=O)c1cc(F)cc(F)c1 [Compound 216]
0.1 to 1,> 100,NC(=O)Cc1ccc(CN(Cc2ccc(Cl)cc2Cl)C(=O)c2cc(F)cc(F)c2)cn1 [Compound 217]
0.1 to 1,10 to 100,O=C(c1cc(F)cc(F)c1)N(Cc1ccc(CCO)nc1)Cc1ccc(Cl)cc1Cl [Compound 218]

EC50 (full length human TREX1) [µM],EC50 [1] [µM],SMILES
1 to 10,10 to 100,Cc1cc(-c2ccc(CN(Cc3ccccc3Cl)C(=O)c3cc(F)cc(F)c3)cn2)[nH]n1 [Compound 219]
0.1 to 1,10 to 100,O=C(c1cc(F)cc(F)c1)N(Cc1cccnc1)[C@H](c1cn[nH]c1)c1ccc(Cl)cc1Cl [Compound 220]
0.1 to 1,10 to 100,O=C(c1cc(F)cc(F)c1)N(Cc1ccc(-c2cc(=O)[nH][nH]2)nc1)Cc1ccccc1Cl [Compound 221]
1 to 10,10 to 100,O=C(c1cc(F)cc(F)c1)N(Cc1cccnc1)[C@@H](c1cn[nH]c1)c1ccc(Cl)cc1Cl [Compound 222]
> 10,> 100,O=C(c1cc(F)cc(F)c1)N(Cc1ccc(-c2cc(C(F)(F)F)n[nH]2)nc1)Cc1ccccc1Cl [Compound 223]
1 to 10,10 to 100,COc1cccc([C@H](C)N(Cc2ccc(-c3ccn[nH]3)nc2)C(=O)c2cc(F)cc(F)c2)c1Cl [Compound 224]
0.1 to 1,10 to 100,COc1cccc([C@@H](C)N(Cc2ccc(-c3ccn[nH]3)nc2)C(=O)c2cc(F)cc(F)c2)c1Cl [Compound 225]
< 0.1,1 to 10,CC[C@H](c1ccc(OC)c(OC)c1Cl)N(Cc1ccc(C(=O)O)nc1)C(=O)c1cc(F)cc(F)c1 [Compound 226]
< 0.1,1 to 10,CC[C@@H](c1ccc(OC)c(OC)c1Cl)N(Cc1ccc(C(=O)O)nc1)C(=O)c1cc(F)cc(F)c1 [Compound 227]
< 0.1,1 to 10,CCOc1cccc([C@@H](CC)N(Cc2ccc(C(=O)O)nc2)C(=O)c2cc(F)cc(F)c2)c1Cl [Compound 228]
< 0.1,1 to 10,CCOc1cccc([C@H](CC)N(Cc2ccc(C(=O)O)nc2)C(=O)c2cc(F)cc(F)c2)c1Cl [Compound 229]
< 0.1,1 to 10,CC[C@@H](c1ccc2c(c1Cl)OCO2)N(Cc1ccc(C(=O)O)nc1)C(=O)c1cc(F)cc(F)c1 [Compound 230]
0.1 to 1,1 to 10,CC[C@H](c1cccc(OC2COC2)c1Cl)N(Cc1ccc(C(=O)O)nc1)C(=O)c1cc(F)cc(F)c1 [Compound 231]
< 0.1,10 to 100,CC[C@@H](c1cccc(OC2COC2)c1Cl)N(Cc1ccc(C(=O)O)nc1)C(=O)c1cc(F)cc(F)c1 [Compound 232]
< 0.1,1 to 10,CC[C@H](c1ccc2c(c1Cl)OCO2)N(Cc1ccc(C(=O)O)nc1)C(=O)c1cc(F)cc(F)c1 [Compound 233]
1 to 10,10 to 100,N#CC[C@@H](c1cccc(Cl)c1Cl)N(Cc1cccnc1)C(=O)c1cc(F)cc(F)c1 [Compound 234]
< 0.1,1 to 10,N#CC[C@H](c1cccc(Cl)c1Cl)N(Cc1cccnc1)C(=O)c1cc(F)cc(F)c1 [Compound 235]
< 0.1,< 1,CC[C@@H](c1cccc(Cl)c1Cl)N(Cc1cnc(C(=O)O)c(N)c1)C(=O)c1cc(F)cc(F)c1 [Compound 236]
> 10,10 to 100,NCC[C@@H](c1cccc(Cl)c1Cl)N(Cc1cccnc1)C(=O)c1cc(F)cc(F)c1 [Compound 237]
> 10,10 to 100,NCC[C@H](c1cccc(Cl)c1Cl)N(Cc1cccnc1)C(=O)c1cc(F)cc(F)c1 [Compound 238]
< 0.1,1 to 10,CC[C@H](c1cccc(Cl)c1Cl)N(Cc1cnc(C(=O)O)c(N)c1)C(=O)c1cc(F)cc(F)c1 [Compound 239]
< 0.1,10 to 100,CNc1cc(CN(Cc2cccc(Cl)c2Cl)C(=O)c2cc(F)cc(F)c2)cnc1C(=O)O [Compound 240]
1 to 10,10 to 100,COC(=O)CC[C@H](c1ccccc1Cl)N(Cc1cccnc1)C(=O)c1cc(F)cc(F)c1 [Compound 241]
< 0.1,10 to 100,COC(=O)CC[C@@H](c1ccccc1Cl)N(Cc1cccnc1)C(=O)c1cc(F)cc(F)c1 [Compound 242]
1 to 10,10 to 100,CN(C)c1cc(CN(Cc2cccc(Cl)c2Cl)C(=O)c2cc(F)cc(F)c2)cnc1C(=O)O [Compound 243]
